{"source": "patent US20130189358A1", "about": "“SAXAGLIPTIN PHARMACEUTICAL FORMULATIONS” (priority 2012, published 2013)", "assay": "Impurity levels 30 days after tablet manufacture (storage stability)", "assay_type": "physicochemical", "conditions": "30 days after manufacture, storage at RT (15-29° C.) and NMT 67% RH; % wt impurity", "procedure": "As used herein, unless indicated otherwise, the amount of saxagliptin cyclic amidine in the dosage forms following manufacture of the pharmaceutical dosage forms are measured following storage for 30 days at room temperature conditions (typically manufacture (following storage at room temperature (i.e. typically a temperature of between 15-29° C.), and at a relative humidity of not more than 67%.\nMeasurements of % wt impurities herein (oxamidine, cyclic amidine, etc) are taken 30 days after manufacture of the formulations [storage at ambient conditions, i.e. room temperature (RT) of between 15-29° C. and not more than 67% relative humidity (RH)].\nFormulation #1 Excluding Cosmetic Coating—Analytical Data (30 Days after Tablet Manufacture)", "note": "Counter-ions that a name gives are not always drawn."}
{"smiles": "N#C[C@@H]1C[C@@H]2C[C@@H]2N1C(=O)[C@@H](N)C12CC3CC(CC(O)(C3)C1)C2", "note": "[Saxagliptin HCl, (1S,3S,5S)-2-((2S)-2-amino-2-(3-hydroxyadamantan-1-yl)-acetyl)-2-azabicyclo[3.1.0]hexane-3-carbonitrile]", "values": [{"measurement": "Cyclic Amidine level", "value": "<0.03", "unit": "%"}, {"measurement": "Greatest Unknown Impurity level", "value": 0.19, "unit": "%"}, {"measurement": "Oxamidine level", "value": "<0.03", "unit": "%"}, {"measurement": "Total Impurity level", "value": 0.23, "unit": "%"}]}
